Source: PMC9655037, “Alternation of Organ-Specific Exposure in LPS-Induced Pneumonia Mice after the Inhalation of Tetrandrine Is Governed by Metabolizing Enzyme Suppression and Lysosomal Trapping” (International Journal of Molecular Sciences, 2022)

Assays:
CYP3A = settings: cited from earlier work
[1] = Bidirectional transport in MOCK LLC-PK1 cells; settings: pig
Protocol: MDR1 expressing LLC-PK1 cells or MOCK LLC-PK1 cells were utilized to identify whether P-gp is involved in the efflux transport across the membrane barrier. Cells were cultured as described above. Cells were seeded at a density of 2 × 10^4 in Millicell® 24-well cell culture plates with a 6.5 mm insert (0.4 µm polycarbonate membrane) from Corning (Kennebunk, ME, USA) 7 days before the experiments. On the day of the experiment, transepithelial electrical resistance (TEER) was measured to assess monolayer integrity. After washing the cells twice with HBSS, transport experiments in either the apical-to-basolateral direction (A-B) or the basolateral-to-apical direction (B-A) were conducted. […] After incubating the plates at 37 °C for 2 h, samples from the receiving and donor wells (50 μL) were taken simultaneously. All the samples were stored at −40 °C for LC-MS/MS analysis.
In the bidirectional transport study in LLC-PK1 cells, the following equations were used to calculate Papp values and the MDR1 efflux ratio.

HEK293-MOCK cells = experiment: Uptake by MOCK (empty vector) HEK293 cells; settings: TET 5 μM, 5 min
Protocol: Expressing OATP1B1/OATP1B3 or MOCK HEK293 cells were utilized to evaluate whether TET is a substrate of these two SLC transporters. Cell culture was performed as mentioned above. Cells were seeded on 96-well plates at the density of 0.8 × 10^5 cells/well. The culture medium was replaced with a medium containing 5 mM sodium butyrate for 24 h before the transport study to enhance the expression of transporters. For the transport assay, the DMEM media were removed and the cells were washed with pre-warmed Krebs–Henseleit buffer twice (0.1 mL/well). The second washing buffer was kept in the wells and the plate was incubated at 37 °C for 5 min before the uptake assay was initiated. […] The incubation solution was removed and the cells were washed with ice-cold transportation buffer three times (0.1 mL/well). A total of 0.1 mL pure water was added to each well to lyse the cells by repeated freezing and thawing (−196 °C–37 °C, three times). The cell lysate was collected and stored at −40 °C for LC-MS/MS analysis and protein measurement.
In the uptake study of TET by OATP1B1 and OATP1B3 expressing the HEK293 cell line, the uptake clearance (U) of the substrate was calculated according to Equation (5), the transporter-mediated uptake ratio (UR) was calculated by dividing the uptake clearance from transporter-expressing cells to that from the mock cells according to Equation (6), and the inhibition ratio (IR) was calculated according to Equation (7), where p represents the protein content and T is the duration of the incubation time. (5) U=Clysate/p×T (6) UR=U/UMOCK (7) IR=(1−Uwith inhibitor−Umock with inhibitor/Uwithout inhibitor−Umock without inhibitor)×100

## COc1ccc2cc1Oc1ccc(cc1)C[C@H]1c3cc(c(OC)cc3CCN1C)Oc1c(OC)c(OC)cc3c1[C@H](C2)N(C)CC3 [TET, Tetrandrine]
CYP3A
  fm (CYP3A, major isoform toward TET): > 90%
[1]
  Papp A→B at 2 h: 1.22 ± 0.07 ×10⁻⁶ cm/s
  Papp B→A at 2 h: 3.83 ± 0.12 ×10⁻⁶ cm/s
[1]; LLC-PK1
  efflux ratio at 2 h: 3.13
HEK293-MOCK cells; MOCK (OATP1B1 set)
  Uptake Clearance: 131 ± 11.3 nM/min/mg Protein
HEK293-MOCK cells; MOCK (OATP1B3 set)
  Uptake Clearance: 126 ± 10.9 nM/min/mg Protein
HEK293-MOCK cells; MOCK+RIF (OATP1B1 set)
  Uptake Clearance: 117 ± 12.8 nM/min/mg Protein
HEK293-MOCK cells; MOCK+RIF (OATP1B3 set)
  Uptake Clearance: 119 ± 8.03 nM/min/mg Protein
